Type in all cases: cell-based, human
Data set [1] relates to primary myoblasts isolated from FSHD1-affected and FSHD-asymptomatic patients. The experiment in a line: small molecule treatment of primary myoblasts, DUX4 expression. The conditions noted are these: alone, or in combination; FIG. 15. The text has this: Trichostatin A (TSA) is a histone deacetylase inhibitor, 5-aza-2′-deoxycytidine (5′ADC) is a DNA methylation inhibitor and chaetocin (CH) is a histone methyltransferase inhibitor.

Data set [2] concerns skeletal myocytes from an FSHD1 patient (05Abic). The experiment in a line: shRNA knockdown screen in terminally differentiated FSHD myocytes, gene expression by qRT-PCR. The conditions noted are these: harvested 4 days after second infection, Mock = 1. The protocol: A screen to identify genes involved in DUX4 expression (e.g., when the expression of these genes is reduced in FSHD muscle cells, DUX4 expression also decreases) was performed. Briefly, primary differentiated myocytes derived from subjects having FSHD were treated with shRNA targeting candidate genes and the expression level of pathogenic DUX4-fl mRNA was quantified. The expression levels of other myogenic regulators (e.g., Myogenin, MyoD, MyHD) and other targets (e.g., FRG1, UTRN, and 18S) were also quantified to assess indirect effects of DUX4 knockdown. A sample screening protocol is shown below:
• 1. Expand low passage primary FSHD myoblasts. • 2. Plate into 6-well plates. • 3. Allow cells to reach confluence and differentiate (approximately 48 hours). • 4. Infect cells with lentiviral shRNA construct and incubate for 24 hours. • 5. Re-infect cells with lentiviral shRNA construct. • 6. Harvest cells 4 days after second infection. • 7. Extract RNA from cells and assay for expression level of DUX4-fl and other genes of interest.
(§1) Myogenic cultures derived from biceps muscles of unrelated FSHD1 patients (05Abic, 17Abic, and 18Abic) were grown in Ham's F-10 medium supplemented with 20% FBS (Hyclone), 0.5% chick embryo extract, 1% antibiotics & antimycotics, and 1.2 mM CaCl2. 293T packaging cells were grown in DMEM+10% FBS+0.1% […]. For shRNA knockdown experiments, 293T cells were transfected with lentiviral packaging plasmid (pCMV-dR8.91), envelope plasmid (VSV-G), and SIGMA MISSION shRNA expression plasmids. Lentiviral supernatants were harvested, aliquoted, and frozen at −80° C. FSHD1 skeletal myoblasts were seeded in collagen-coated 6-well plates (for gene expression analysis) or 10-cm plates (for ChIP) and grown to confluence, then allowed to self-differentiate in growth medium for ˜48 h. Cells were subjected to two rounds of infection. Briefly, lentiviral supernatants+8 μg/ml polybrene were added to cultures and the plates were incubated for 15 min at 37° C., then wrapped well with parafilm before centrifuging for 30 min at 1100 g (32° C.). Following centrifugation, the viral supernatants were replaced with growth medium. Cells were maintained in growth medium and harvested 4 d after the last round of infection. For dCas9-KRAB infections, 293T cells were transfected with lentiviral packaging plasmid (pCMV-dR8.91), envelope plasmid (VSV-G), and either dCas9-KRAB expression plasmid (#50919) or sgRNA expression plasmid using the TransIT-LT1 transfection reagent. Lentiviral supernatants were harvested at […] from 72-108 h post-transfection. FSHD1 skeletal myoblasts were seeded in collagen-coated 6-well plates and grown to ˜80% confluency, then subjected to four serial infections over two days. Cells were allowed to recover for ˜8 h in growth medium prior to the next round of infection. Following the last infection, these self-differentiated cultures were maintained in growth medium for 72 h prior to harvesting.
Total RNAs were extracted using TRIzol (Invitrogen) and purified using the RNeasy Mini kit (Qiagen) after on-column DNase I digestion. Total RNA (2 μg) was used for cDNA synthesis using Superscript III Reverse Transcriptase (Invitrogen), and 200 ng of cDNA were used for qPCR analysis.
The D4Z4 macrosatellite array that encodes DUX4 is normally under strong epigenetic repression in adult somatic cells. […] Thirty-six candidate activators of DUX4 fl were investigated as potential drug targets (Table 3). These candidates include transcriptional regulators, chromatin remodelers, and histone modifying enzymes. For the initial screen, skeletal myocytes from an FSHD1 patient (05Abic) which express consistent and relatively high levels of DUX4 fl when terminally differentiated were used. Using lentivirus-encoded shRNAs, each candidate was knocked down in terminally differentiated cultures, then cells were harvested four days later and assessed for expression of DUX4 fl and other genes.
In general terms: In qPCR the cycle at which signal appears reflects the starting amount.

The subject of data set [3] is FSHD myocytes (05Abic, 18Abic, and 17Abic). Nature of the data set: shRNA knockdown across FSHD cohorts, DUX4-fl by qRT-PCR. The following applies: FIG. 11F.
Source text: FIGS. 11A-11F show shRNA knockdown of epigenetic regulators reduces expression of DUX4-fl in FSHD myocytes. Differentiated FSHD myocytes were infected in two serial rounds with shRNAs to ASH1L (FIG. 11A), BAZ1A (FIG. 11B), BRD2 (FIG. 11C), KDM4C (FIG. 11D), SMARCA5 (FIG. 11E), or a scrambled control. Four days later, cells were harvested for analysis of the full-length DUX4 isoform (DUX4-fl), Myogenin (Myog), MyoD, Myosin heavy chain 1 (MyHC), FRG1, Utrophin (Utr), and 18S gene expression by qRT-PCR. […] In all panels, relative mRNA expression for mock or control-infected cells is set to 1. Data are plotted as the mean+SD value of technical replicates.
as §1
Total RNAs were extracted using TRIzol (Invitrogen) and purified using the RNeasy Mini kit (Qiagen) after on-column DNase I digestion. […]

Several values for one entry are separate records, joined by “and”; a condition that tells them apart may be missing. Equal values may be shown once.

For `Nc1ncn([C@H]2C[C@H](O)[C@@H](CO)O2)c(=O)n1` [5-aza-2′-deoxycytidine], the “DUX4 expression (in words)” value in data set [1] is listed as “affect DUX4 expression”.

`CC(/C=C/C(=O)NO)=C\[C@@H](C)C(=O)c1ccc(N(C)C)cc1` [Trichostatin A]: the “DUX4 expression (in words)” value in data set [1] is “affect DUX4 expression”.

Turning to “PJ1: shRNA targeting ASH1L; SEQ ID NO: 4 (guide CCGGCGACATAAACTTGACATCTTTCTCGAGAAAGATGTCAAGTTTATGTCGTTTTT)”, in data set [2], the “18S relative gene expression” value is on record as 1.372, the “D4-fl relative gene expression” value came out at 0.3399, the “FRG1 relative gene expression” value amounted to 1.051 and the “MyHC relative gene expression” value was determined as 1.066. In addition, in data set [2], the “MyoD relative gene expression” value amounted to 0.7238, the “Myog relative gene expression” value turned out to be 1.795 and the “Utr relative gene expression” value is 0.6994. Further, in data set [3], the “DUX4-fl expression (in words)” value is listed as “reduce DUX4-fl expression”.

Take “PJ2: shRNA targeting ASH1L; SEQ ID NO: 5 (guide CCGGCCTGCCAAATACCATAAGAAACTCGAGTTTCTTATGGTATTTGGCAGGTTTTT)”: in data set [2], the “18S relative gene expression” value stood at 1.311, the “D4-fl relative gene expression” value came out at 0.1371, the “FRG1 relative gene expression” value came out at 1.172 and the “MyHC relative gene expression” value is given as 0.7221. For the same compound, in data set [2], the “MyoD relative gene expression” value was found to be 0.8503, the “Myog relative gene expression” value stood at 0.8845 and the “Utr relative gene expression” value is 0.815.

In the case of “PJ3: shRNA targeting ASH1L; SEQ ID NO: 6 (guide CCGGCGTACTTTGTTTATCCCAGAACTCGAGTTCTGGGATAAACAAAGTACGTTTTT)”, in data set [2], the “18S relative gene expression” value came to 1.185, the “D4-fl relative gene expression” value is 0.2434, the “FRG1 relative gene expression” value came out at 1.141 and the “MyHC relative gene expression” value is 1.341. Besides, in data set [2], the “MyoD relative gene expression” value is 0.9895, the “Myog relative gene expression” value turned out to be 0.7218 and the “Utr relative gene expression” value worked out at 1.128.

Consider “PJ11: shRNA targeting BRD2; SEQ ID NO: 10 (guide CCGGCCCTTTGCTGTGACACTTCTTCTCGAGAAGAAGTGTCACAGCAAAGGGTTTTT)”, for which, in data set [2], the “18S relative gene expression” value was 1.112, the “D4-fl relative gene expression” value came to 0.124, the “FRG1 relative gene expression” value is 1.25 and the “MyHC relative gene expression” value was 0.7342. Further, in data set [2], the “MyoD relative gene expression” value is 0.9277, the “Myog relative gene expression” value turned out to be 1.026 and the “Utr relative gene expression” value is 0.6067. The “DUX4-fl expression (in words)” value in data set [3] is “reduce DUX4-fl expression”.

In the case of “PJ12: shRNA targeting BRD2; SEQ ID NO: 11 (guide CCGGGCCCTCTTTACGTGATTCAAACTCGAGTTTGAATCACGTAAAGAGGGCTTTTT)”, in data set [2], the “18S relative gene expression” value worked out at 1.099, the “D4-fl relative gene expression” value was determined as 0.1127, the “FRG1 relative gene expression” value is 1.178 and the “MyHC relative gene expression” value was determined as 0.7927. Besides, in data set [2], the “MyoD relative gene expression” value was 0.904, the “Myog relative gene expression” value was found to be 1.088 and the “Utr relative gene expression” value came to 0.6755.

On to “PJ73: shRNA targeting KDM4C; SEQ ID NO: 1 (guide CCGGGCCTCTGACATGCGATTTGAACTCGAGTTCAAATCGCATGTCAGAGGCTTTTT)”, for which, in data set [2], the “18S relative gene expression” value was 1.253, the “D4-fl relative gene expression” value is listed as 0.1101, the “FRG1 relative gene expression” value was determined as 1.043 and the “MyHC relative gene expression” value is given as 0.7968. Also, in data set [2], the “MyoD relative gene expression” value came out at 0.9045, the “Myog relative gene expression” value turned out to be 1.338 and the “Utr relative gene expression” value was 0.6393.

On to “PJ74: shRNA targeting KDM4C; SEQ ID NO: 2 (guide CCGGGCAGAGAGTAATGGTGTGTTACTCGAGTAACACACCATTACTCTCTGCTTTTT)”, for which, in data set [2], the “18S relative gene expression” value was 1.129, the “D4-fl relative gene expression” value is reported as 0.08801, the “FRG1 relative gene expression” value was found to be 1.211 and the “MyHC relative gene expression” value is 0.7642. In data set [2], the “MyoD relative gene expression” value stood at 0.7621, the “Myog relative gene expression” value was 1.81 and the “Utr relative gene expression” value amounted to 0.7121. Besides, the “DUX4-fl expression (in words)” value in data set [3] is given as “reduce DUX4-fl expression”.

Regarding “PJ75: shRNA targeting KDM4C; SEQ ID NO: 3 (CCGGGCCCAAGTCTTGGTATGCTATCTCGAGATAGCATACCAAGACTTGGGCTTTTT)”, in data set [2], the “18S relative gene expression” value is given as 0.9781, the “D4-fl relative gene expression” value was found to be 0.1812, the “FRG1 relative gene expression” value is given as 0.7766 and the “MyHC relative gene expression” value is on record as 0.9826. Moreover, in data set [2], the “MyoD relative gene expression” value worked out at 1.048, the “Myog relative gene expression” value is 1.318 and the “Utr relative gene expression” value came to 1.018.

As for “PJ152: shRNA targeting BAZ1A; SEQ ID NO: 9 (guide CCGGGCGATGAAGAAGAAGGTCAAACTCGAGTTTGACCTTCTTCTTCATCGCTTTTTG)”, in data set [2], the “18S relative gene expression” value is reported as 1.312, the “D4-fl relative gene expression” value is on record as 0.1892, the “FRG1 relative gene expression” value came out at 0.9047 and the “MyHC relative gene expression” value was determined as 0.8503. In addition, in data set [2], the “MyoD relative gene expression” value is 0.991, the “Myog relative gene expression” value was 1.318 and the “Utr relative gene expression” value is 0.954.

For the compound “PJ195: shRNA targeting SMARCA5; SEQ ID NO: 7 (guide CCGGGTTCTTTAATTTACGGGTCTTCTCGAGAAGACCCGTAAATTAAAGAACTTTTT)”, in data set [2], the “18S relative gene expression” value came out at 0.9905, the “D4-fl relative gene expression” value worked out at 0.168, the “FRG1 relative gene expression” value is given as 0.9865 and the “MyHC relative gene expression” value was 0.7803. Also, in data set [2], the “MyoD relative gene expression” value was determined as 0.8981, the “Myog relative gene expression” value is 0.8003 and the “Utr relative gene expression” value is 1.024.

Take “PJ196: shRNA targeting SMARCA5; SEQ ID NO: 8 (guide CCGGCCGGGCAAATAGATTCGAGTACTCGAGTACTCGAATCTATTTGCCCGGTTTTT)”: in data set [2], the “18S relative gene expression” value is 0.9807 and 1.048; the “D4-fl relative gene expression” value was 0.1085 and 0.1967; the “FRG1 relative gene expression” value is 0.8974 and 0.9209; the “MyHC relative gene expression” value was 0.469 and 0.5926. In data set [2], the “MyoD relative gene expression” value was 0.722 and 0.9103; the “Myog relative gene expression” value was 0.9247 and 0.9293; the “Utr relative gene expression” value is 0.8261 and 1.231. Moreover, the “DUX4-fl expression (in words)” value in data set [3] is “reduce DUX4-fl expression”.
